Experimental data reported in patent publication US8158657B2, “Heterocycles substituted pyridine derivatives and antifungal agent containing thereof” (Eisai R&D Management Co., Ltd., priority 2005, dated 2012).
In brackets after ≈: the same amount, converted by molar mass.

Legend:
[1] = test system: A. fumigatus Tsukuba strain; test: Anti-Aspergillus activity, MIC measurement; assay type: cell-based; conditions: RPMI1640, 42-48 hours at 35° C., visual inspection, read-out: Anti-Aspergillus Activity (minimum inhibitory concentration, MIC)
Summary of the method: (§1)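 C. albicans CAF2-1 was grown 48 h at 30° C. in SDB and diluted in RPMI1640 to 1.2×10^3 cells/mL. Frozen A. fumigatus Tsukuba was diluted to 4.5×10^3 cells/mL. Compounds, two-fold serially diluted in DMSO from 2.5 mg/mL, were cultured aerobically with fungi for 42-48 h at 35° C.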

[2] = test system: C. albicans E81022 strain; test: Experimental systemic candidal infection model in mice; assay type: in vivo; conditions: peroral, 3 times every 4 hours, female ICR mice, observed until 14 days after infection
Method: A standing culture of C. albicans E81022 strain was carried out for 48 hours at 30° C. in sabouraud dextrose agar medium (SDA), the recovered fungal cells were suspended in sterilized physiological saline. By counting the fungal number on cytometry plate, the suspension was diluted to 2×10^7 cells/mL with sterilized physiological saline to serve fungal inoculum.
The fungal inoculum was used in the amounts of 0.2 mL to inoculate 4.5 to 5.5 week-old female ICR mice in the tail vein (4×10^6 cells/mouse).
From 0.5 to 1 hour after fungal inoculation, 0.2 mL of agent solution (dissolved or suspended in sterilized physiological saline containing 6.5% dimethyl sulfoxide and 3.5% Tween 80) was administered into the stomach using a peroral probe, 3 times every 4 hours. The agent concentration was 2.5 mg/kg or 10 mg/kg, and the number of animals in one group was 5 animals.
The protective effect was determined by observing life/death until 14 days after infection and calculating the mean survival days.

[3] = test system: C. albicans CAF2-1 strain; test: Anti-Candida activity, MIC measurement; assay type: cell-based; conditions: CAF21STRAIN, C. albicans CAF2-1, RPMI1640, 42-48 hours at 35° C., visual inspection, read-out: Anti-Candida Activity (minimum inhibitory concentration, MIC)
Summary of the method: as §1

Row | Structure (SMILES) | MIC [1] [µg/mL] | Mean Survival Days ([2]; 2.5 mg/kg) [days] | Mean Survival Days ([2]; 10 mg/kg) [days] | MIC [3] [µg/mL]
1 | Nc1ccc(-c2cc(Cc3ccc(CNc4ccccc4)cc3)no2)c(N)n1 [Example 133, 3-(3-(4-Phenylaminomethyl-benzyl)-isoxazol-5-yl)-pyridin-2,6-diamine] | 0.39 (≈ 1.05 µM) | 7.0 | 13.4 | 0.2 (≈ 0.538 µM)
2 | Nc1ccc(-c2cc(Cc3ccc(Oc4ccc(F)cc4)nc3)no2)c(N)n1 [Example 135, 3-(3-(6-(4-Fluoro-phenoxy)-pyridin-3-ylmethyl)-isoxazol-5-yl)-pyridin-2,6-diamine] | 0.39 (≈ 1.03 µM) | 11.0 | 13.4 | 0.78 (≈ 2.07 µM)
3 | Nc1ccc(-c2cc(Cc3ccc(OCc4nccs4)cc3)no2)c(N)n1 [Example 151, 3-(3-(4-(Thiazol-2-ylmethoxy)-benzyl)-isoxazol-5-yl)-pyridin-2,6-diamine] | 0.39 (≈ 1.03 µM) | 7.0 | 14.0 | 0.78 (≈ 2.06 µM)
4 | Nc1ccc(-c2cc(Cc3ccc(Oc4ccc(F)cc4)s3)no2)c(N)n1 [Example 155] | 0.1 (≈ 0.261 µM) | 10.4 | 13.0 | 0.1 (≈ 0.261 µM)
5 | COCc1ccc(-c2cc(Cc3ccc(OCc4ccccn4)cc3)no2)c(N)n1 [Example 166, 6-Methoxymethyl-3-(3-(4-(pyridin-2-ylmethoxy)-benzyl)-isoxazol-5-yl)pyridin-2-ylamine] | 0.78 (≈ 1.94 µM) | 3.4 | 12.4 | 0.39 (≈ 0.969 µM)
6 | Cc1ccc(-c2cc(Cc3ccc(COc4ccccn4)cc3)no2)c(N)n1 [Example 171] | 0.39 (≈ 1.05 µM) | 8.4 | 12.6 | 0.2 (≈ 0.537 µM)
7 | Nc1ccc(-c2cc(Cc3ccc(COc4ccccn4)cc3)no2)cn1 [Example 176] | 0.2 (≈ 0.558 µM) | 12.6 | 13.4 | 0.2 (≈ 0.558 µM)
8 | Nc1ncccc1-c1cnn(Cc2ccc(OCc3ccccn3)cc2)c1 [Example 192, 3-(1-(4-(Pyridin-2-ylmethoxy)-benzyl)-1H-pyrazol-4-yl)-pyridin-2-ylamine] | 1.56 (≈ 4.36 µM) | 3.2 | 9.4 | 0.39 (≈ 1.09 µM)
9 | c1ccc(OCc2ccc(Cc3cc(-c4cccnc4)on3)cc2)nc1 [Example 202, 3-(3-(4-(Pyridin-2-yloxymethyl)-benzyl)-isoxazol-5-yl)-pyridine] | 0.2 (≈ 0.582 µM) | 2.4 | 10.0 | 0.05 (≈ 0.146 µM)
